Source: US4293650A, “Anti-coccidial substance and its preparation” (Rhone-Poulenc Industries, priority 1977, dated 1981)

Legend:
[1] = test system: Staphylococcus aureus,strain 209 P- ATCC 6538 P; assay: Bacteriostatic activity in vitro (dilution method); assay type: cell-based; settings: nutrient broth
[2] = test system: Staphylococcus aureus,Smith strain; assay: Bacteriostatic activity in vitro (dilution method); assay type: cell-based; settings: nutrient broth
[3] = test system: Sarcina lutea - ATCC 9341; assay: Bacteriostatic activity in vitro (dilution method); assay type: cell-based; settings: nutrient broth
[4] = test system: Streptococcus faecalis - ATCC 8043; assay: Bacteriostatic activity in vitro (dilution method); assay type: cell-based; settings: nutrient broth
[5] = test system: Streptococcus pyogenes haemolyticus, Dig 7 strain (Institut Pasteur); assay: Bacteriostatic activity in vitro (dilution method); assay type: cell-based; settings: nutrient broth
[6] = test system: Diplococcus pneumoniae, Til strain (Institut Pasteur); assay: Bacteriostatic activity in vitro (dilution method); assay type: cell-based; settings: nutrient broth
[7] = test system: Neisseria catarrhalis (A 152, Institut Pasteur); assay: Bacteriostatic activity in vitro (dilution method); assay type: cell-based; settings: nutrient broth
[8] = test system: Bacillus subtilis - ATCC 6633; assay: Bacteriostatic activity in vitro (dilution method); assay type: cell-based; settings: nutrient broth
[9] = test system: Bacillus cereus - ATCC 6630; assay: Bacteriostatic activity in vitro (dilution method); assay type: cell-based; settings: nutrient broth
[10] = test system: Mycobacterium species - ATCC 607; assay: Bacteriostatic activity in vitro (dilution method); assay type: cell-based; settings: nutrient broth
[11] = test system: Shigella dysenteriae, Shiga L (Institut Pasteur); assay type: cell-based; settings: nutrient broth
[12] = test system: Salmonella schottmuelleri (paratyphi B), Fougenc strain (Institut Pasteur); assay: Bacteriostatic activity in vitro (dilution method); assay type: cell-based; settings: nutrient broth
[13] = test system: Proteus vulgaris; assay: Bacteriostatic activity in vitro (dilution method); assay type: cell-based; settings: nutrient broth
[14] = test system: Pseudomonas aeruginosa; assay: Bacteriostatic activity in vitro (dilution method); assay type: cell-based; settings: nutrient broth
[15] = test system: mice; assay: Acute toxicity in mice; assay type: in vivo; settings: orally, single dose
Procedure: Acute toxicity: in mice, the 50% lethal dose (LD50) is 90 mg/kg given orally in a single dose.

[16] = test system: chickens; assay: Toxicity of medicated feed in chickens (non-toxic concentrations); assay type: in vivo; settings: between 0.005% and 0.04% by weight in feed
Procedure: Anti-coccidial activity: the anti-coccidial activity was determined in chickens infested in particular with Eimeria tenella and Eimeria acervulina.
The anti-coccidial activity of 37,454 RP (sodium salt), incorporated into chicken feed, manifests itself at non-toxic concentrations of between 0.005% and 0.04% by weight of the sodium salt in the feed.

Question: With `CO[C@H]1CC[C@H](O[C@H]2[C@H](C)[C@@H]([C@H]3CC[C@H]([C@@H]4CC[C@H]([C@@]5(C)OC6(O[C@H](C[C@@H]7O[C@](O)([C@@H](O)C(=O)[O-])[C@@H](C)[C@H](OC)[C@@]7(C)OC)C[C@@H](OC)[C@H]6C)[C@H](C)[C@H]5OC)O4)O3)O[C@](C)(O)[C@@H]2C)O[C@@H]1C.[Na+]` (stereo partly shown) [37,454 RP (sodium salt)] as the compound, how does the Minimum bacteriostatic concentration [1] read?
Answer: 0.6 μg/cc

Question: What about the Minimum bacteriostatic concentration [2] of the same compound?
Answer: 0.8 μg/cc

Question: And the Minimum bacteriostatic concentration [3]?
Answer: 0.9 μg/cc

Question: What about the Minimum bacteriostatic concentration [4] of the same compound?
Answer: 0.3 μg/cc

Question: And the Minimum bacteriostatic concentration [5]?
Answer: 0.6 μg/cc

Question: What about the Minimum bacteriostatic concentration [6] of the same compound?
Answer: 0.1 μg/cc

Question: What about the Minimum bacteriostatic concentration [7] of the same compound?
Answer: > 20 μg/cc

Question: What about the Minimum bacteriostatic concentration [8] of the same compound?
Answer: 0.8 μg/cc

Question: What about the Minimum bacteriostatic concentration [9] of the same compound?
Answer: 0.3 μg/cc

Question: What about the Minimum bacteriostatic concentration [10] of the same compound?
Answer: 10 μg/cc

Question: And the Minimum bacteriostatic concentration [11]?
Answer: > 50 μg/cc

Question: What about the Minimum bacteriostatic concentration [12] of the same compound?
Answer: > 50 μg/cc

Question: And the Minimum bacteriostatic concentration [13]?
Answer: > 50 μg/cc

Question: And the Minimum bacteriostatic concentration [14]?
Answer: > 15 μg/cc

Question: What about the “50% lethal dose (LD50)” value [15] of the same compound?
Answer: 90 mg/kg

Question: What about the “Toxicity at active feed concentrations” value [16] of the same compound?
Answer: non-toxic
